Experiments:
Assay in all cases: NCI SRB growth inhibition (single dose 10 µM / five-dose)
Assay type in all cases: cell-based, human
CCRF-CEM = conditions: Homo sapiens; for inhibition at 10 µM: CCRF-CEM (Leukemia), read-out: GI%; for GI50: CCRF-CEM, Leukemia, five-dose
In short: (§1)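 SRB read-out. Plating density 5000–40,000 cells/well; Tz fixed at 24 h; 5 conc. (10-fold or ½ log) + control; TCA fix, 0.4% SRB/1% AcOH 10 min RT; % growth = (Ti−Tz)/(C−Tz)×100, or (Ti−Tz)/Tz×100 when Ti<Tz.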

SK-MEL-28 = conditions: Homo sapiens; for inhibition at 10 µM: SK-MEL-28 (Melanoma), read-out: GI%; for GI50: SK-MEL-28, Melanoma, five-dose
In short: as §1

U251 = conditions: Homo sapiens, U-251; for inhibition at 10 µM: U251 (CNS cancer), read-out: GI%; for GI50: U251, CNS cancer, five-dose
In short: as §1

KM12 = conditions: Homo sapiens; for inhibition at 10 µM: KM12 (Colon cancer), read-out: GI%; for GI50: KM12, Colon cancer, five-dose
In short: as §1

MDA-MB-231/ATCC = conditions: Homo sapiens; for inhibition at 10 µM: MDA-MB-231/ATCC (Breast cancer), read-out: GI%; for GI50: MDA-MB-231/ATCC, Breast cancer, five-dose
In short: as §1

IGROV1 = conditions: Homo sapiens, IGROV-1; for inhibition at 10 µM: IGROV1 (Ovarian cancer), read-out: GI%; for GI50: IGROV1, Ovarian cancer, five-dose
In short: as §1

PC-3 = conditions: Homo sapiens; for inhibition at 10 µM: PC-3 (Prostate cancer), read-out: GI%
In short: as §1

NCI-H460 = conditions: Homo sapiens; for inhibition at 10 µM: NCI-H460 (Non-small cell lung cancer), read-out: GI%; for GI50: NCI-H460, Non-small cell lung cancer, five-dose
In short: as §1

NCI-H226 = conditions: Homo sapiens; for inhibition at 10 µM: NCI-H226 (Non-small cell lung cancer), read-out: GI%; for GI50: NCI-H226, Non-small cell lung cancer, five-dose
In short: as §1

A498 = conditions: Homo sapiens; for inhibition at 10 µM: A498 (Renal cancer), read-out: GI%; for GI50: A498, Renal cancer, five-dose
In short: as §1

HOP-92 = conditions: Homo sapiens; for inhibition at 10 µM: HOP-92 (Non-small cell lung cancer), read-out: GI%
In short: as §1

HOP-62 = conditions: Homo sapiens; for inhibition at 10 µM: HOP-62 (Non-small cell lung cancer), read-out: GI%; for GI50: HOP-62, Non-small cell lung cancer, five-dose
In short: as §1

OVCAR-3 = conditions: Homo sapiens; for inhibition at 10 µM: OVCAR-3 (Ovarian cancer), read-out: GI%; for GI50: OVCAR-3, Ovarian cancer, five-dose
In short: as §1

SK-MEL-5 = conditions: Homo sapiens; for inhibition at 10 µM: SK-MEL-5 (Melanoma), read-out: GI%; for GI50: SK-MEL-5, Melanoma, five-dose
In short: as §1

NCI-H23 = conditions: Homo sapiens; for inhibition at 10 µM: NCI-H23 (Non-small cell lung cancer), read-out: GI%; for GI50: NCI-H23, Non-small cell lung cancer, five-dose
In short: as §1

SF-268 = conditions: Homo sapiens; for inhibition at 10 µM: SF-268 (CNS cancer), read-out: GI%; for GI50: SF-268, CNS cancer, five-dose
In short: as §1

SNB-75 = conditions: Homo sapiens; for inhibition at 10 µM: SNB-75 (CNS cancer), read-out: GI%
In short: as §1

HT29 = conditions: Homo sapiens, HT-29; for inhibition at 10 µM: HT29 (Colon cancer), read-out: GI%; for GI50: HT29, Colon cancer, five-dose
In short: as §1

NCI/ADR-RES = conditions: Homo sapiens; for inhibition at 10 µM: NCI/ADR-RES (Ovarian cancer), read-out: GI%; for GI50: NCI/ADR-RES, Ovarian cancer, five-dose
In short: as §1

SF-295 = conditions: Homo sapiens; for inhibition at 10 µM: SF-295 (CNS cancer), read-out: GI%; for GI50: SF-295, CNS cancer, five-dose
In short: as §1

RXF 393 = conditions: Homo sapiens; for inhibition at 10 µM: RXF 393 (Renal cancer), read-out: GI%; for GI50: RXF 393, Renal cancer, five-dose
In short: as §1

HCT-15 = conditions: Homo sapiens; for inhibition at 10 µM: HCT-15 (Colon cancer), read-out: GI%; for GI50: HCT-15, Colon cancer, five-dose
In short: as §1

SN12C = conditions: Homo sapiens; SN12C, Renal cancer; five-dose
In short: as §1

SK-OV-3 = conditions: Homo sapiens; for inhibition at 10 µM: SK-OV-3 (Ovarian cancer), read-out: GI%; for GI50: SK-OV-3, Ovarian cancer, five-dose
In short: as §1

MDA-MB-435 = conditions: Homo sapiens; for inhibition at 10 µM: MDA-MB-435 (Melanoma), read-out: GI%; for GI50: MDA-MB-435, Melanoma, five-dose
In short: as §1

NCI-H522 = conditions: Homo sapiens; for inhibition at 10 µM: NCI-H522 (Non-small cell lung cancer), read-out: GI%; for GI50: NCI-H522, Non-small cell lung cancer, five-dose
In short: as §1

Molecule `COc1ccc(-c2nc3cc(C(=O)NN=Cc4cccc(OC)c4)ccc3[nH]2)cc1` [8j, N'-(3-Methoxybenzylidene)-2-(4-methoxyphenyl)-1H-benzo[d]imidazole-5-carbohydrazide] has an inhibition at 10 µM (CCRF-CEM) of 35%, a GI50 (CCRF-CEM) of 7910 nM and an inhibition at 10 µM (SK-MEL-28) of 64.2%. The GI50 (SK-MEL-28) was 3930 nM, the inhibition at 10 µM (U251) was greater than 100% and the GI50 (U251) was 2180 nM. The inhibition at 10 µM (KM12) was greater than 100%, the GI50 (KM12) was 4340 nM and the inhibition at 10 µM (MDA-MB-231/ATCC) was greater than 100%. For the same molecule, the GI50 (MDA-MB-231/ATCC) was 2430 nM, the inhibition at 10 µM (IGROV1) was greater than 100% and the GI50 (IGROV1) was 3490 nM. For the same molecule, the inhibition at 10 µM (PC-3) was greater than 100%, the inhibition at 10 µM (NCI-H460) was greater than 100% and the GI50 (NCI-H460) was 1850 nM. It also gave an inhibition at 10 µM (NCI-H226) of 98.3%, a GI50 (NCI-H226) of 2130 nM and an inhibition at 10 µM (A498) of less than 5%. The GI50 (A498) was 21500 nM, the inhibition at 10 µM (HOP-92) was greater than 100% and the inhibition at 10 µM (HOP-62) was greater than 100%. The GI50 (HOP-62) was 2700 nM, the inhibition at 10 µM (OVCAR-3) was greater than 100% and the GI50 (OVCAR-3) was 2050 nM. The inhibition at 10 µM (SK-MEL-5) was greater than 100%, the GI50 (SK-MEL-5) was 3450 nM and the inhibition at 10 µM (NCI-H23) was greater than 100%. The GI50 (NCI-H23) was 2950 nM, the inhibition at 10 µM (SF-268) was 84.7% and the GI50 (SF-268) was 3280 nM. It also gave an inhibition at 10 µM (SNB-75) greater than 100%, a GI50 (SNB-75; SNB-75, CNS cancer, five-dose) of 1780 nM and an inhibition at 10 µM (HT29) greater than 100%. The GI50 (HT29) was 2800 nM, the inhibition at 10 µM (NCI/ADR-RES) was 32% and the GI50 (NCI/ADR-RES) was 6350 nM. It also gave an inhibition at 10 µM (SF-295) of 167%, a GI50 (SF-295) of 2930 nM and an inhibition at 10 µM (RXF 393) greater than 100%. The GI50 (RXF 393) was 2260 nM, the inhibition at 10 µM (HCT-15) was 79.2% and the GI50 (HCT-15) was 3920 nM. It also gave a GI50 (SN12C) of 2780 nM, an inhibition at 10 µM (SK-OV-3) of 68.3% and a GI50 (SK-OV-3) of 5390 nM. The inhibition at 10 µM (MDA-MB-435) was 76.5%, the GI50 (MDA-MB-435) was 6250 nM and the inhibition at 10 µM (NCI-H522) was 89.7%. The GI50 (NCI-H522) was 3300 nM.
`COc1cccc(C=NNC(=O)c2ccc3[nH]c(-c4ccc(Cl)cc4)nc3c2)c1O` [8r, 2-(4-Chlorophenyl)-N'-(2-hydroxy-3-methoxybenzylidene)-1H-benzo[d]imidazole-5-carbohydrazide] gave an inhibition at 10 µM (CCRF-CEM) greater than 100%, a GI50 (CCRF-CEM) of 430 nM and an inhibition at 10 µM (SK-MEL-28) greater than 100%. The GI50 (SK-MEL-28) was 1620 nM, the inhibition at 10 µM (U251) was greater than 100% and the GI50 (U251) was 1500 nM. It also gave an inhibition at 10 µM (KM12) greater than 100%, a GI50 (KM12) of 1660 nM and an inhibition at 10 µM (MDA-MB-231/ATCC) greater than 100%. The GI50 (MDA-MB-231/ATCC) was 1820 nM, the inhibition at 10 µM (IGROV1) was greater than 100% and the GI50 (IGROV1) was 1250 nM. For the same molecule, the inhibition at 10 µM (PC-3) was greater than 100%, the GI50 (PC-3; PC-3, Prostate cancer, five-dose) was 1620 nM and the inhibition at 10 µM (NCI-H460) was greater than 100%. The GI50 (NCI-H460) was 1350 nM, the inhibition at 10 µM (NCI-H226) was greater than 100% and the GI50 (NCI-H226) was 1650 nM. For the same molecule, the inhibition at 10 µM (A498) was greater than 100%, the GI50 (A498) was 12100 nM and the inhibition at 10 µM (HOP-92) was greater than 100%. The GI50 (HOP-92; HOP-92, Non-small cell lung cancer, five-dose) was 1250 nM, the inhibition at 10 µM (HOP-62) was greater than 100% and the GI50 (HOP-62) was 1040 nM. The inhibition at 10 µM (OVCAR-3) was greater than 100%, the GI50 (OVCAR-3) was 560 nM and the inhibition at 10 µM (SK-MEL-5) was greater than 100%. It also gave a GI50 (SK-MEL-5) of 1340 nM, an inhibition at 10 µM (NCI-H23) greater than 100% and a GI50 (NCI-H23) of 1150 nM. For the same molecule, the inhibition at 10 µM (SF-268) was greater than 100%, the GI50 (SF-268) was 1210 nM and the inhibition at 10 µM (SNB-75) was greater than 100%. For the same molecule, the inhibition at 10 µM (HT29) was greater than 100%, the GI50 (HT29) was 4170 nM and the inhibition at 10 µM (NCI/ADR-RES) was 49.3%. It also gave a GI50 (NCI/ADR-RES) greater than 100000 nM, an inhibition at 10 µM (SF-295) greater than 100% and a GI50 (SF-295) of 2200 nM. For the same molecule, the inhibition at 10 µM (RXF 393) was greater than 100%, the GI50 (RXF 393) was 1410 nM and the inhibition at 10 µM (HCT-15) was 95.2%. The GI50 (HCT-15) was 2720 nM, the GI50 (SN12C) was 1720 nM and the inhibition at 10 µM (SK-OV-3) was greater than 100%. For the same molecule, the GI50 (SK-OV-3) was 2080 nM, the inhibition at 10 µM (MDA-MB-435) was greater than 100% and the GI50 (MDA-MB-435) was 1810 nM. For the same molecule, the inhibition at 10 µM (NCI-H522) was greater than 100% and the GI50 (NCI-H522) was 1170 nM.

Source: publication PMC10893631, “Receptor-based pharmacophore modeling, molecular docking, synthesis and biological evaluation of novel VEGFR-2, FGFR-1, and BRAF multi-kinase inhibitors” (BMC Chemistry, 2024)
